Laboratory results from patent US20130029967A1, “Fused Imidazo [3,2 - D] Pyrazines as P13 Kinase Inhibitors” (Centro Nacional de Investigaciones Oncologicas (CNIO), priority 2009, published 2013).
Read-outs that look alike come from different tables or passages of the source.

What was measured:
PI3K (p110α/p85α) = target: T1, PI3K (p110α/p85α) (Homo sapiens, UniProt P42336); assay: PI3K activity assay (ADP Hunter Plus); assay type: biochemical; conditions: quantitative results, read-out: PI3K α IC50
T1 construct: purchased Carna Biosciences 07CBS-0402A
T1 sequence (P42336 whole entry): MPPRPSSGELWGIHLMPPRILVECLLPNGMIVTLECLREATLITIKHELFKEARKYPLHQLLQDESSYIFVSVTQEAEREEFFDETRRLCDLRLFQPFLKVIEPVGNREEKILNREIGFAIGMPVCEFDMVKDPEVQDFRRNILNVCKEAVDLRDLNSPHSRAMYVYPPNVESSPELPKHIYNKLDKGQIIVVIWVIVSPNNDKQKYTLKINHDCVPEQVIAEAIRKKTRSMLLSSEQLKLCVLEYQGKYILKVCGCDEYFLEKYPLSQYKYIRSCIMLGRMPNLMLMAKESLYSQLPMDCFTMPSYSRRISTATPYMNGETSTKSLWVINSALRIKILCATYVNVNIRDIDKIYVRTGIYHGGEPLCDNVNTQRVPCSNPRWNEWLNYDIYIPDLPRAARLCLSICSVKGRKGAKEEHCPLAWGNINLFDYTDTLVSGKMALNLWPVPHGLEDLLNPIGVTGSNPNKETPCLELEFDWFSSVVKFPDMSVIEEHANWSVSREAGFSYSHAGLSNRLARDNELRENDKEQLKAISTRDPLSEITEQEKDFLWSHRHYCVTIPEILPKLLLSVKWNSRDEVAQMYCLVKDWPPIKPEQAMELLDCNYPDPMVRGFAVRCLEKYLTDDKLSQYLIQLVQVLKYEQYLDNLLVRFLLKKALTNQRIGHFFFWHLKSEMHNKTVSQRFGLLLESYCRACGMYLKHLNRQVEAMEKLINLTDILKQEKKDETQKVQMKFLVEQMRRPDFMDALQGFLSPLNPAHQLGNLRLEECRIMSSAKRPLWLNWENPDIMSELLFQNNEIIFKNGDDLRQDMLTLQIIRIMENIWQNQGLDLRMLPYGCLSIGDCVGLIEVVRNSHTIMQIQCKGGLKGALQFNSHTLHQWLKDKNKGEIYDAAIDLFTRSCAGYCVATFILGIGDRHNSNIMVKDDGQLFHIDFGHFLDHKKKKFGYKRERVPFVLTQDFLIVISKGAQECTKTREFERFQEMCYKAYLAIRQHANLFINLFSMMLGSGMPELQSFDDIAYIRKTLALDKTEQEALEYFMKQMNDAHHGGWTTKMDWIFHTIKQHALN
T1 sequence (P27986 whole entry partner): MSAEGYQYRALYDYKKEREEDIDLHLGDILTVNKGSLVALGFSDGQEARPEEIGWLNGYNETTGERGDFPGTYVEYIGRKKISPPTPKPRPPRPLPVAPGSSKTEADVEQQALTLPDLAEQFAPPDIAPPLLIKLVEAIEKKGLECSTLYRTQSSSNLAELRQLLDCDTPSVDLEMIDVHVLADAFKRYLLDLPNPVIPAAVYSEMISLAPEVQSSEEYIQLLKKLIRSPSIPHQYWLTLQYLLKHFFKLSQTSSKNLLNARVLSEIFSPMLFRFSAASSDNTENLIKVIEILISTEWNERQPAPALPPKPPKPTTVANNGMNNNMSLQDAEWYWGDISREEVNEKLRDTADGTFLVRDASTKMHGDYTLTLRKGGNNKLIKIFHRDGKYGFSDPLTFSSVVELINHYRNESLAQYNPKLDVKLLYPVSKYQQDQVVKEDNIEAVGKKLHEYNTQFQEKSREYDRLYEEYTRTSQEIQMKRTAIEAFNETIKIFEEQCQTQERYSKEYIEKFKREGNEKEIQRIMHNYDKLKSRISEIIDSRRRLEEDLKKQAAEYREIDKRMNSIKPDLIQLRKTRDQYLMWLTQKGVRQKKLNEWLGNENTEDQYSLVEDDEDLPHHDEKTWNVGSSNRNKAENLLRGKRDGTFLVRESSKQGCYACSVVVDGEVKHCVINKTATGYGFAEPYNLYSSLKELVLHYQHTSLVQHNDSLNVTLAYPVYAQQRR
Procedure: The kinase activity was measured by using the commercial ADP Hunter™ Plus assay available from DiscoveRx (#33-016), which is a homogeneous assay to measure the accumulation of ADP, a universal product of kinase activity. […] Reaction was carried out for 1 hour at 25° C. Reagent A and B were sequentially added to the wells and plates were incubated for 30 min at 37° C. […] Values were normalized against the control activity included for each enzyme (i.e., 100% PI3 kinase activity, without compound). These values were plot against the inhibitor concentration and were fit to a sigmoid dose-response curve by using the Graphed software.

phospho-Ser-473-Akt = assay: AKT phosphorylation inhibition, Western blot analysis; assay type: cell-based; conditions: cellular p-AKT
Procedure: (§1) Cell culture: The cell lines were obtained from the American Type Culture Collection (ATCC). U2OS (human osteosarcoma) was cultured in Dulbecco's modified Eagle's medium (DMEM). PC3 (human prostate carcinoma), MCF7 (human breast cardinoma), HCT116 (human colon carcinoma), […], U251 (human glyoblastoma) were grown in RPMI. All media were supplemented with 10% fetal bovine serum (FBS) (Sigma) and antibiotics-antimycotics. Cell were maintained in a humidified incubator at 37° C. with 5% CO2 and passaged when confluent using trypsin/EDTA.
AKT phosphorylation Inhibition Western Blot Analysis: Subconfluent cells were incubated under different conditions and washed twice with TBS prior to lysis. Lysis buffer was added containing 50 mM Tris HCl, 150 mM NaCl, 1% NP-40, 2 mM Na3VO4, 100 mM NaF, 20 mM Na4P2O7 and protease inhibitor cocktail (Roche Molecular Biochemicals). The proteins were resolved on 10% SDS-PAGE and transferred to nitrocellulose membrane (Schleicher & Schuell, Dassel, Germany). The membranes were incubated overnight at 4° C. with antibodies specific for Akt, phospho-Ser-473-Akt (Cell Signaling Technology) and α-tubulin (Sigma), they were washed and then incubated with IRDye800 conjugated anti-mouse and Alexa Fluor 680 goat anti-rabbit IgG secondary antibodies. The bands were visualized using an Odyssey infrared imaging system (Li-Cor Biosciences).

[1] = test system: phospho-AKT (Ser473) in Osteosarcoma U2OS cells; assay: PI3K cellular activity, ELISA (phospho-AKT Ser473); assay type: cell-based; conditions: Homo sapiens, cellular p-AKT
Procedure: as §1
Activity was measured as endogenous levels of phospho-AKT (Ser473) protein. Osteosarcoma U2OS cells were plated in 96 Poly-D-Lysine coating tissue culture plates (18.000 cells/well). After the treatment with serial dilutions of the compound during 3 h, the cells were fixed directly in the wells with 4% paraformaldehide. After fixing, individual wells went through the same series of steps used for a conventional immunoblot: including blocking with 5% BSA, incubation with 1/1000 of primary antibody-AKT ([…]) in PBS containing 5% BSA at 4° C. overnight (Cell Signalling), washing and incubation with second antibody HRP-anti-mouse IgG for 1 h at RT (Amersham). After the addition of SuperSignal ELISA Femto maximum sensitivity chemiluminescent substrate (Pierce) the results were read in a luminescence plate reader (Victor).

Structure (SMILES) | IC50 (PI3K (p110α/p85α)) | IC50 (phospho-Ser-473-Akt) | IC50 (PI3K (p110α/p85α); PI3Kα) | IC50 [1]
Cc1ccc(NC(=O)N2CCc3nc4c(N5CCOCC5)nc(-c5cnc(N)nc5)cn4c3C2)cc1 [2-105] |  |  | 44 nM | 345 nM
Nc1ncc(-c2cn3c4c(nc3c(N3CCOCC3)n2)CCN(C(=O)NCc2ccccc2F)C4)cn1 [2-90] |  |  | 46 nM | 302 nM
Nc1ncc(-c2cn3c4c(nc3c(N3CCOCC3)n2)CCN(Cc2ccccn2)C4)cn1 [2-18] |  | 245 nM | 69 nM | 
CCS(=O)(=O)N1CCc2nc3c(N4CCOCC4)nc(-c4cnc(N)nc4)cn3c2C1 [2-73] |  |  | 29 nM | 236 nM
COc1ccc(NC(=O)N2CCc3nc4c(N5CCOCC5)nc(-c5cnc(N)nc5)cn4c3C2)cc1 [2-102] |  |  | 70 nM | 541 nM
COCCS(=O)(=O)N1CCc2nc3c(N4CCOCC4)nc(-c4cnc(N)nc4)cn3c2C1 [2-85] |  |  | 54 nM | 344 nM
Nc1ncc(-c2cn3c4c(nc3c(N3CCOCC3)n2)CCN(C(=O)NCc2cccc(F)c2)C4)cn1 [2-83] |  |  | 25 nM | 497 nM
COc1cccc(CNC(=O)N2CCc3nc4c(N5CCOCC5)nc(-c5cnc(N)nc5)cn4c3C2)c1 [2-97] |  |  | 38 nM | 491 nM
Nc1ncc(-c2cn3c4c(nc3c(N3CCOCC3)n2)CCN(C(=O)Nc2cccc(F)c2)C4)cn1 [2-91] |  |  | 75 nM | 443 nM
COc1ccc(CNC(=O)N2CCc3nc4c(N5CCOCC5)nc(-c5cnc(N)nc5)cn4c3C2)cc1 [2-96] |  |  | 28 nM | 385 nM
CCOC(=O)N1CCc2nc3c(N4CCOCC4)nc(-c4cnc(N)nc4)c(Cl)n3c2C1 [2-32] |  | 78 nM | 84 nM | 
COc1cccc(NC(=O)N2CCc3nc4c(N5CCOCC5)nc(-c5cnc(N)nc5)cn4c3C2)c1 [2-93] |  |  | 64 nM | 415 nM
CS(=O)(=O)N1CCc2nc3c(N4CCOCC4)nc(-c4cnc(N)nc4)c(Cl)n3c2C1 [2-49] |  |  | 9 nM | 95 nM
CC(C)S(=O)(=O)N1CCc2nc3c(N4CCOCC4)nc(-c4cnc(N)nc4)cn3c2C1 [2-59] |  |  | 77 nM | 853 nM
Nc1ncc(-c2cn3c4c(nc3c(N3CCOCC3)n2)CCN(S(=O)(=O)C2CCCC2)C4)cn1 [2-69] |  |  | 23 nM | 450 nM
Nc1ncc(-c2cn3c4c(nc3c(N3CCOCC3)n2)CCN(C(=O)NC2CCCC2)C4)cn1 [2-66] |  |  | 57 nM | 546 nM
CCCNC(=O)N1CCc2nc3c(N4CCOCC4)nc(-c4cnc(N)nc4)cn3c2C1 [2-53] |  |  | 62 nM | 564 nM
c1cc(-c2cn3c4c(nc3c(N3CCOCC3)n2)CCNC4)c2cn[nH]c2c1 [2-04] |  | 56 nM | 755 nM | 
CN(C)c1ccc(NC(=O)N2CCc3nc4c(N5CCOCC5)nc(-c5cnc(N)nc5)cn4c3C2)cc1 [2-74] |  |  | 74 nM | 888 nM

Now from value to compound:

IC50 (PI3K (p110α/p85α)) | IC50 (phospho-Ser-473-Akt) | IC50 (PI3K (p110α/p85α); PI3Kα) | IC50 [1] | Structure (SMILES)
45 nM | 174 nM |  |  | COc1ccc(CN2CCc3c(nc4c(N5CCOCC5)nc(-c5cnc(N)nc5)cn34)C2=O)cc1 [5-06]
7 nM |  |  | 139 nM | Nc1ncc(-c2cn3c4c(nc3c(N3CCOCC3)n2)CN(C(=O)NCc2ccccc2F)CC4)cn1 [6-44]
17 nM |  |  | 187 nM | CN(C)c1ccc(NC(=O)N2CCc3c(nc4c(N5CCOCC5)nc(-c5cnc(N)nc5)cn34)C2)cc1 [6-39]
14 nM |  |  | 475 nM | Nc1ncc(-c2cn3c4c(nc3c(N3CCOCC3)n2)CCC(=O)N4)cn1 [5-11]
121 nM | 180 nM |  |  | COCCN1CCc2c(nc3c(N4CCOCC4)nc(-c4cnc(N)nc4)c(Cl)n23)C1 [6-09]
88 nM | 318 nM |  |  | CN1CCc2c(nc3c(N4CCOCC4)nc(-c4cnc(N)nc4)cn23)C1 [6-02]
33 nM |  |  | 246 nM | CS(=O)(=O)N1CCc2c(nc3c(N4CCOCC4)nc(-c4cnc(N)nc4)c(Cl)n23)C1 [6-17]
50 nM | 532 nM |  |  | COCCN1CCc2c(nc3c(N4CCOCC4)nc(-c4cnc(N)nc4)cn23)C1 [6-03]
29 nM |  |  | 218 nM | Nc1ncc(-c2cn3c4c(nc3c(N3CCOCC3)n2)CN(C(=O)C2CC2)CC4)cn1 [6-24]
14 nM |  |  | 101 nM | Nc1ncc(-c2cn3c4c(nc3c(N3CCOCC3)n2)CN(C(=O)Nc2cccc(F)c2)CC4)cn1 [6-45]
25 nM |  |  | 188 nM | COc1ccccc1NC(=O)N1CCc2c(nc3c(N4CCOCC4)nc(-c4cnc(N)nc4)cn23)C1 [6-33]
21 nM |  |  | 250 nM | Nc1ncc(-c2cn3c4c(nc3c(N3CCOCC3)n2)CN(C(=O)Nc2ccccc2F)CC4)cn1 [6-36]
7 nM |  |  | 112 nM | COc1ccccc1CNC(=O)N1CCc2c(nc3c(N4CCOCC4)nc(-c4cnc(N)nc4)cn23)C1 [6-46]
